SMILES strings stand for the structures. ≈ marks a conversion by molar mass, not a printed value. Where only a bound is given, the exact number is not on record here.

Among the data in patent publication US9540350B2, “1-substituted, 4-(substituted phenoxymethyl)-1,2,3-triazole compounds with antifungal properties and methods for preparation thereof” (FDC LIMITED, priority 2013, dated 2017) are MIC50 values, retold here.

One test relates to C. albicans ATCC 24433. As to the kind of experiment: Antifungal susceptibility, broth dilution MIC (CLSI M27-A2). The format is cell-based. The note with it: Candida albicans, ATCC24433; C. albicans ATCC 24433; broth dilution, RPMI 1640 with MOPS, 48 hours; read-out: Activity against organisms (MIC50) Ca01. How it is done: (§1) The compounds of Formula 1 were tested for antifungal activity against Candida albicans, C. glabrata, C. krusei, C. tropicalis, Cryptococcus neoformans, Aspergillus fumigatus, A. niger and Fusarium proliferatum. In vitro evaluation of antifungal activity was performed by determining the minimum inhibitory concentration (MIC) following standard methods (CLSI: Reference method for broth dilution antifungal susceptibility testing of yeasts; Approved standard, second edition M27-A2, 2002; CLSI: Reference method for broth dilution antifungal susceptibility testing of filamentous fungi; Approved standard M38-A, 2002). Anti-fungal susceptibility testing of these anti-fungal compounds was done by broth dilution method using RPMI 1640 medium with MOPS buffer. Known anti-fungal agent fluconazole was used as positive control. End points were determined after 48 hours visually and by using spectrophotometer wherever necessary. Different dilutions were tried and various sets of experiments performed. The activity parameters are enumerated in Table 4.

The test system of another test is C. glabrata ATCC 90030. The test is described as above. The test is classed as cell-based, Candida glabrata. The settings on record: Nakaseomyces glabratus, ATCC90030; C. glabrata ATCC 90030; broth dilution, RPMI 1640 with MOPS, 48 hours; read-out: Activity against organisms (MIC50) Cg01. The protocol:
as §1
Background: In broth dilution the organism is exposed to a series of concentrations in liquid medium.

Another test deals with C. krusei ATCC 6258. The test is described as above. The note with it: Pichia kudriavzevii, ATCC6258; C. krusei ATCC 6258; broth dilution, RPMI 1640 with MOPS, 48 hours; read-out: Activity against organisms (MIC50) Ck01. The test is classed as cell-based, Candida krusei. The protocol: as §1
The test system of another test is C. tropicalis ATCC 750. The description is as above. The test is classed as cell-based, Candida tropicalis. The settings on record: Candida tropicalis, ATCC750; C. tropicalis ATCC 750; broth dilution, RPMI 1640 with MOPS, 48 hours; read-out: Activity against organisms (MIC50) Ct01. How it is done:
as §1

The subject of another test is C. neoformans ATCC 34664. The description is as above. The format is cell-based, Cryptococcus neoformans. The note with it: Cryptococcus neoformans, ATCC34664; C. neoformans ATCC 34664; broth dilution, RPMI 1640 with MOPS, 48 hours; read-out: Activity against organisms (MIC50) Cn01. The protocol: as §1
The test system of a further test is A. fumigatus ATCC 46645. The experiment in a line: Antifungal susceptibility, broth dilution MIC (CLSI M38-A). The format is cell-based. The settings on record: Aspergillus fumigatus, ATCC46645; A. fumigatus ATCC 46645; broth dilution, RPMI 1640 with MOPS, 48 hours; read-out: Activity against organisms (MIC50) Afm01. The protocol: as §1
The subject of a further test is A. niger ATCC 16404. Described as above. The test is classed as cell-based. The note with it: Aspergillus niger, ATCC16404; A. niger ATCC 16404; broth dilution, RPMI 1640 with MOPS, 48 hours; read-out: Activity against organisms (MIC50) An01. How it is done:
as §1

Test [1] has as its system F. proliferatum ATCC 10052. The test is described as above. The format is cell-based. The settings on record: Fusarium proliferatum, ATCC10052; F. proliferatum ATCC 10052; broth dilution, RPMI 1640 with MOPS, 48 hours; read-out: Activity against organisms (MIC50) Fp01. How it is done: as §1

One may read the MIC50 as an inhibitory concentration at the 50% level, which refers to growth in some studies and to a panel of isolates in others. Consider `COc1ccc(CN2CCN(c3ccc(C(=O)/C=C/c4ccc(OCc5cn(CC(O)(Cn6cncn6)c6ccc(F)cc6F)nn5)cc4)cc3)CC2)cc1` (stereo not drawn) [Compound 1B-8, (E)-3-(4-((1-(2-(2,4-Difluorophenyl)-2-hydroxy-3-(1H-1,2,4-triazol-1-yl)propyl)-1H-1,2,3-triazol-4-yl)methoxy)phenyl)-1-(4-(4-(4-methoxybenzyl)piperazin-1-yl)phenyl)prop-2-en-1-one], for which the MIC50 with C. albicans ATCC 24433 is 0.12 µg/mL (≈ 0.161 µM); in the test with C. glabrata ATCC 90030, 0.12 µg/mL (≈ 0.161 µM); in the test with C. krusei ATCC 6258 it was 2 µg/mL (≈ 2.68 µM); in the test on C. tropicalis ATCC 750, 0.5 µg/mL (≈ 0.67 µM); with C. neoformans ATCC 34664, 0.5 µg/mL (≈ 0.67 µM); with A. fumigatus ATCC 46645, over 8 µg/mL. In addition, the MIC50 (in the test on A. niger ATCC 16404; in test [1]) was over 8 µg/mL each time.
`C=C=CCOc1ccc(/C=C/C(=O)/C=C/c2ccc(OCc3cn(CC(O)(Cn4cncn4)c4ccc(F)cc4F)nn3)cc2)cc1` (stereo not drawn) [Compound 1B-9, (1E,4E)-1-(4-(Buta-2,3-dienyloxy)phenyl)-5-(4-((1-(2-(2,4-difluorophenyl)-2-hydroxy-3-(1H-1,2,4-triazol-1-yl)propyl)-1H-1,2,3-triazol-4-yl)methoxy)phenyl)penta-1,4-dien-3-one]: the MIC50 with C. albicans ATCC 24433 is 0.25 µg/mL (≈ 0.393 µM); with C. glabrata ATCC 90030, 0.5 µg/mL (≈ 0.785 µM); with C. krusei ATCC 6258 it was 2 µg/mL (≈ 3.14 µM); with C. tropicalis ATCC 750 it was 1 µg/mL (≈ 1.57 µM); in the test with C. neoformans ATCC 34664, 0.25 µg/mL (≈ 0.393 µM); with A. fumigatus ATCC 46645 it was over 2 µg/mL. Further, the MIC50 (in the test on A. niger ATCC 16404; in test [1]) was over 2 µg/mL in each case.
Consider `O=C(/C=C/c1ccc(OCc2cn(CC(O)(Cn3cncn3)c3ccc(F)cc3F)nn2)cc1)c1ccc(OCC(O)(Cn2cncn2)c2ccc(F)cc2F)cc1` (stereo not drawn) [Compound 1B-10, (E)-1-(4-(2-(2,4-Difluorophenyl)-2-hydroxy-3-(m-1,2,4-triazol-1-yl)propoxy)phenyl)-3-(4-((1-(2-(2,4-difluorophenyl)-2-hydroxy-3-(1H-1,2,4-triazol-1-yl)propyl)-1H-1,2,3-triazol-4-yl)methoxy)phenyl)prop-2-en-1-one], for which the MIC50 is 0.25 µg/mL (≈ 0.314 µM) in the test on C. albicans ATCC 24433; 0.5 µg/mL (≈ 0.628 µM) in the test with C. glabrata ATCC 90030; 2 µg/mL (≈ 2.51 µM) in the test on C. krusei ATCC 6258; 1 µg/mL (≈ 1.26 µM) in the test on C. tropicalis ATCC 750; 1 µg/mL (≈ 1.26 µM) in the test with C. neoformans ATCC 34664; over 2 µg/mL with A. fumigatus ATCC 46645. The MIC50 (in the test on A. niger ATCC 16404; in test [1]) was over 2 µg/mL in each case.
In the case of `CC/C=C/c1ccc(OCc2cn(CC(O)(Cn3cncn3)c3ccc(F)cc3F)nn2)cc1` (stereo not drawn) [Compound 1C-1, (E)-1-(4-((4-(But-1-en-1-yl)phenoxy)methyl)-1H-1,2,3-triazol-1-yl)-2-(2,4-difluorophenyl)-3-(1H-1,2,4-triazol-1-yl)propan-2-ol], the MIC50 with C. albicans ATCC 24433 was determined as 0.03 µg/mL (≈ 0.0643 µM); in the test on C. glabrata ATCC 90030, 0.015 µg/mL (≈ 0.0322 µM); in the test with C. krusei ATCC 6258 it was 2 µg/mL (≈ 4.29 µM); with C. tropicalis ATCC 750 it was 0.25 µg/mL (≈ 0.536 µM); in the test on C. neoformans ATCC 34664, 0.12 µg/mL (≈ 0.257 µM); with A. fumigatus ATCC 46645, 8 µg/mL (≈ 17.1 µM). For the same compound, the MIC50 was 8 µg/mL (≈ 17.1 µM) with A. niger ATCC 16404 and over 16 µg/mL in test [1].
As for `CCCC/C=C/c1ccc(OCc2cn(CC(O)(Cn3cncn3)c3ccc(F)cc3F)nn2)cc1` (stereo not drawn) [Compound 1C-2, (E)-2-(2,4-Difluorophenyl)-1-(4-((4-(n-hex-1-en-1-yl)phenoxy)methyl)-1H-1,2,3-triazol-1-yl)-3-(1H-1,2,4-triazol-1-yl)propan-2-ol], the MIC50 in the test with C. albicans ATCC 24433 came to 0.12 µg/mL (≈ 0.243 µM); in the test on C. glabrata ATCC 90030 it was 0.06 µg/mL (≈ 0.121 µM); in the test with C. krusei ATCC 6258, 2 µg/mL (≈ 4.04 µM); with C. tropicalis ATCC 750 it was 1 µg/mL (≈ 2.02 µM); with C. neoformans ATCC 34664, 0.25 µg/mL (≈ 0.506 µM); in the test on A. fumigatus ATCC 46645, 4 µg/mL (≈ 8.09 µM). The MIC50 with A. niger ATCC 16404 is 4 µg/mL (≈ 8.09 µM); in test [1], over 4 µg/mL.
`CCCCCCCCCC/C=C/c1ccc(OCc2cn(CC(O)(Cn3cncn3)c3ccc(F)cc3F)nn2)cc1` (stereo not drawn) [Compound 1C-3, (E)-2-(2,4-Difluorophenyl)-1-(4-((4-(n-dodec-1-en-1-yl)phenoxy)methyl)-1H-1,2,3-triazol-1-yl)-3-(1H-1,2,4-triazol-1-yl)propan-2-ol]: the MIC50 in the test on C. albicans ATCC 24433 is 1 µg/mL (≈ 1.73 µM); in the test with C. glabrata ATCC 90030, 0.12 µg/mL (≈ 0.207 µM); in the test on C. krusei ATCC 6258 it was over 2 µg/mL; with C. tropicalis ATCC 750, over 2 µg/mL; in the test with C. neoformans ATCC 34664 it was 0.5 µg/mL (≈ 0.864 µM); in the test on A. fumigatus ATCC 46645 it was over 2 µg/mL. Moreover, the MIC50 (with A. niger ATCC 16404; in test [1]) was over 2 µg/mL each time.
